What was measured:
[1] = system: CD44v3 in MDA-MB-231 cells; test: Immunofluorescence, membrane CD44v3; assay type: cell-based; settings: MDA-MB-231, immunofluorescence/confocal, NGF
Text: The CD44v3- and CD44v6-containing isoforms expressing respectively exon 8 and 11(Fig. 1A) can interact with growth factor receptors. Using COS-7 cells with low CD44 and TrkA expression (Supplementary Fig. 1A-D), we differentially expressed TrkA and CD44s or a CD44 variant, either CD44v3 or CD44v6 (Fig. 1B, supplementary Fig. 2). […] Additionally, we evaluated the expression of TrkA and CD44v3 at the membrane level or in cells by immunofluorescence in MDA-MB-231 cells.
Supplementary file 13046_2022_2314_MOESM3_ESM.pdf: Additional file 3: Supplementary Figure 1. Validation of the ectopic expression of CD44 and/or TrkA in COS-7 cells. The expression of all CD44 isoforms (A), CD44 variant 3 (B), CD44 variant 6 (C) and TrkA ([…]; D) was evaluated by RT–qPCR (normalized using PUM-1). No expression of CD44, CD44 variants [3 or 6] or TrkA was detected in COS-7 cells (A-D) compared with that in cells transfected with the expression plasmid carrying each protein. […] Quantification of the PLA results was performed using ImageJ software (30 randomly chosen fields per condition of three different experiments). […] CD44v3 and CD44v6 levels at the plasma membrane were assessed by flow cytometry (A-D). The plasma membrane and total TrkA and CD44v3 levels were also quantified by confocal microscopy (E-H). […] The CD44v3/NGF interaction was evaluated using microscale thermophoresis (MST). […]

[2] = Body weight in xenografted SCID mice; assay type: in vivo; settings: 10 mice per group; injections near the tumor
Protocol: MDA-MB-231 cells (2 × 10^6) were subcutaneously injected into the flanks of six-week-old female SCID mice. One month after injection, the mice were randomized into 2 groups and injected near the tumor with CD44v3 mimetic peptide 4 (P4) or not (control) five times in a 3-day interval. Tumor volume was determined throughout the experiment by measuring the length (l) and width (w) and was calculated as π/6 × l × w × […]. Animals were sacrificed using isoflurane anesthesia when the tumors reached a similar size, and the organs were immediately removed and stored in liquid nitrogen.
Fig. 6 CD44v3 mimetic peptide 4 blocks MDA-MB-231 tumor growth and metastasis. Schematic representation of the experimental setup for MDA-MB-231 tumor growth assessment in SCID mice (A). Body weight (B) and tumor volume (C) were measured following CD44v3 mimetic peptide administration (10 mice per group). Schematic representation of the experimental setup for MDA-MB-231 metastasis assessment in SCID mice (D). Percentage of metastasis-positive lungs, brains and livers (E) after scramble peptide or CD44v3 mimetic peptide 4 treatment (3 mice/group) or (F) after TrkA-H112 mutant treatment (6 mice) compared with HA-TrkA cells (5 mice). ** p < 0.01; ns, nonsignificant. […]

| Substance | level of CD44v3 at the membrane (in words) [1] | body weight (in words) [2] |
| --- | --- | --- |
| NGF: recombinant human β-NGF (Alomone Labs, Israel) | increased at the membrane until 15 min of NGF treatment and then decreased | – |
| IDDDEDFISST [Peptide 4, mimetic peptide 4 (…) corresponding to the C-terminal region of CD44v3] | – | did not affect the overall body weight of the mice |
